Experimental data taken from PubChem BioAssay AID588562 (The Scripps Research Institute Molecular Screening Center, 2011).
Active and inactive are the calls of the source. How the calls were made is not given here.

target: Neuropeptides B/W receptor type 1 (Homo sapiens) (UniProt P48145); assay: GPR7 receptor antagonists, late-stage follow-up, cell-based, fluorescence, percent inhibition (AID 588562); settings: GPR7-expressing cells, fluorescence antagonist assay; at 20 µM; active compounds read high
Sequence (P48145 whole entry, looked up): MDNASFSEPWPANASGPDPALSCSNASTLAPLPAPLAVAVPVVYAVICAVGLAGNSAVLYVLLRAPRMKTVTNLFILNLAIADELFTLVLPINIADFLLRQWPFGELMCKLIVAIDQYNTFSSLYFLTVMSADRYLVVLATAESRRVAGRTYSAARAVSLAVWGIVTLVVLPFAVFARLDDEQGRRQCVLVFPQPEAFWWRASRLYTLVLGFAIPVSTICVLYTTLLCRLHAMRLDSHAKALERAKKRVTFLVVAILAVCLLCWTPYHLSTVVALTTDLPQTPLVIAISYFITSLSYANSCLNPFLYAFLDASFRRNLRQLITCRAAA

inhibition, inactive:
COc1ccc(Oc2c(N3CCOCC3)cnn(-c3ccc(C(C)C)cc3)c2=O)cc1 37%, COc1ccc(Oc2ccnn(-c3ccc(C)cc3)c2=O)cc1 24%, COc1ccc(COc2c(Cl)cnn(-c3ccc(C(C)C)cc3)c2=O)cc1 27%, COc1ccc(Oc2c(C(=O)O)cnn(-c3ccc(C(C)C)cc3)c2=O)cc1 -16%, CC(C)c1ccc(-n2ncc(NCc3ccccc3)c(Cl)c2=O)cc1 -18%, COc1ccc(Oc2c(C(=O)N(C)C)cnn(-c3ccc(C(C)C)cc3)c2=O)cc1 7%, CCOc1ccc(Oc2c(Cl)cnn(-c3ccc(C(C)C)cc3)c2=O)cc1 46%, COc1ccc(Oc2c(N)cnn(-c3ccc(C(F)(F)F)cc3)c2=O)cc1 31%, COc1ccc(Oc2c(N3CCN(C(=O)OC(C)(C)C)CC3)cnn(-c3ccc(C(C)C)cc3)c2=O)cc1 15%, COc1ccc(Oc2c(-n3nnc(C)c3C)cnn(-c3ccc(C(C)C)cc3)c2=O)cc1 15%, CC(C)c1ccc(-n2ncc(Cl)c(Oc3cc(C(C)(C)C)cc(C(C)(C)C)c3)c2=O)cc1 -3%, COc1ccc(Oc2c(N3CCN(C)CC3)cnn(-c3ccc(C(C)C)cc3)c2=O)cc1 -25%, COc1ccc(Oc2c(NC(C)=O)cnn(-c3ccc(C(C)C)cc3)c2=O)cc1 15%, COc1ccc(Oc2c(N)cnn(-c3ccc(C(C)C)cc3)c2=O)cc1 -10%, CC(C)c1ccc(-n2ncc(Cl)c(Oc3ccc(C(F)(F)F)cc3)c2=O)cc1 55%
